Reference: BindingDB's records for doi:10.1016/j.bmcl.2016.03.009 (Toray Industries, 2016)

Assay: Agonist activity at human IP receptor in platelet rich plasma assessed as inhibition of ADP-induced platelet aggregation preincubated for 1 min followed by addition of ADP by aggregometry

| Structure (SMILES) | IC50 [µM] |
| --- | --- |
| O=C(O)COc1ccc(CCN(C(=O)c2ccccc2)c2ccc(Cl)cc2)cc1 | 0.74 |
| O=C(O)COc1cccc(CCN(C(=O)c2ccccc2)c2ccc(Cl)cc2)c1 | > 30 |
| O=C(O)COc1ccc(CCCN(C(=O)c2ccccc2)c2ccc(Cl)cc2)cc1 | 20 |
| O=C(O)COc1ccc(CN(C(=O)c2ccccc2)c2ccc(Cl)cc2)cc1 | > 30 |
| O=C(O)COc1cccc2c1OCCN2CCN(C(=O)c1ccccc1)c1ccc(Cl)cc1 | 0.013 |
| O=C(O)COC1CCC(=CCN(C(=O)c2ccccc2)c2ccc(Cl)cc2)CC1 (stereo not given) | 0.32 |
| Cc1cc(C)c(N(CCN2CCC(OCC(=O)O)CC2)C(=O)c2ccccc2)c(C)c1 | > 1 |
| Cc1ccc(N(CCN2CCC(OCC(=O)O)CC2)C(=O)c2ccccc2)c(C)c1 | > 1 |
| Cc1ccccc1N(CCN1CCC(OCC(=O)O)CC1)C(=O)c1ccccc1 | > 1 |

Second part, the compound after the results:

| IC50 [µM] | Structure (SMILES) |
| --- | --- |
| 0.44 | O=C(O)COC1CCN(CCN(C(=O)c2ccccc2)c2ccc(Cl)cc2)CC1 |
| 23 | O=C(O)COC1CCN(CCN(C(=O)c2ccccc2)c2ccc(Cl)cc2)C1 (stereo not given) |
| 3.2 | O=C(O)COC1CCN(CCN(C(=O)c2ccccc2)c2ccccc2)CC1 |
| 0.13 | Cc1ccc(N(CCN2CCC(OCC(=O)O)CC2)C(=O)c2ccccc2)cc1 |
| 0.9 | COc1ccc(N(CCN2CCC(OCC(=O)O)CC2)C(=O)c2ccccc2)cc1 |
| > 1 | O=C(O)COC1CCN(CCN(C(=O)c2ccccc2)c2ccc(N3CCCC3)cc2)CC1 |
| > 1 | Cc1cccc(N(CCN2CCC(OCC(=O)O)CC2)C(=O)c2ccccc2)c1 |
| > 1 | CC(C)c1ccc(N(CCN2CCC(OCC(=O)O)CC2)C(=O)c2ccccc2)cc1 |
| > 1 | CCCCc1ccc(N(CCN2CCC(OCC(=O)O)CC2)C(=O)c2ccccc2)cc1 |
| 1 | CCCc1ccc(N(CCN2CCC(OCC(=O)O)CC2)C(=O)c2ccccc2)cc1 |
| 0.43 | CCc1ccc(N(CCN2CCC(OCC(=O)O)CC2)C(=O)c2ccccc2)cc1 |
